Source: patent US11166460B2, “α-amino acrylate microbicide, and preparation method therefor and uses thereof” (priority 2017, dated 2021)
≈ marks a conversion by molar mass, not a printed value. Where two headings read alike, the source gives them in different places.

Legend:
[1] = tested on: tobacco mosaic virus (TMV); assay: Anti-TMV protective activity (protection mode), live friction inoculation on tobacco seedlings; type: in vivo; conditions: Tobacco mosaic virus, read-out: Anti-TMV activity, Protection effect (inhibition)
[2] = tested on: tobacco mosaic virus (TMV); assay: Anti-TMV curative activity (treatment mode), live friction inoculation on tobacco seedlings; type: in vivo; conditions: Tobacco mosaic virus, read-out: Anti-TMV activity, Curative effect (inhibition), 100 μg/mL, tobacco seedlings, checked on seventh day
Sclerotinia sclerotiorum = assay: microbe, parasite or virus in culture; type: cell-based; conditions: Sclerotinia sclerotiorum; for EC90: read-out: EC90 against S. sclerotiorum in vitro; for inhibition at 50 µg/mL: 50 μg/mL
Botrytis cinerea = assay: Fungicidal activity, fungi growth rate method, BC; type: cell-based; conditions: Botrytis cinerea, 50 μg/mL
Pellicularia sasakii = assay: Fungicidal activity, fungi growth rate method, PS; type: cell-based; conditions: 50 μg/mL
Physalospora piricola = assay: Fungicidal activity, fungi growth rate method, PP; type: cell-based; conditions: 50 μg/mL; read-out: Fungicidal activity, inhibition, PP
Cercospora arachidicola = assay: Fungicidal activity, fungi growth rate method, CA; type: cell-based; conditions: Mycosphaerella arachidis; 50 μg/mL; read-out: Fungicidal activity, inhibition, CA
[3] = tested on: tobacco mosaic virus (TMV); assay: Anti-TMV inactivation activity (inactivation mode), compound mixed with TMV before inoculation of tobacco leaves; type: in vivo; conditions: Tobacco mosaic virus, read-out: Anti-TMV activity, Inactivation effect (inhibition)
wheat Gibberella zeae = assay: microbe, parasite or virus in culture; type: cell-based; conditions: Fusarium graminearum
Alternaria solani = assay: Fungicidal activity, fungi growth rate method, AS; type: cell-based; conditions: Alternaria solani, 50 μg/mL
Rhizoctonia cerealis = assay: Fungicidal activity, fungi growth rate method, RC; type: cell-based; conditions: Ceratobasidium cereale, 50 μg/mL
[4] = tested on: Phytophthora infestans (Mont) de Bary; assay: microbe, parasite or virus in culture; type: cell-based; conditions: Phytophthora infestans
[5] = tested on: tobacco mosaic virus (TMV); assay: Anti-TMV inducing activity (induction mode), tobacco seedlings; type: in vivo; conditions: Tobacco mosaic virus, read-out: Anti-TMV activity, Induction effect (inhibition), 100 μg/mL, tobacco seedlings
[6] = read-out: Fungicidal activity, inhibition, SS
[7] = read-out: Fungicidal activity, inhibition, BC
[8] = read-out: Fungicidal activity, inhibition, PS
[9] = read-out: Fungicidal activity, inhibition, GZ
[10] = read-out: Fungicidal activity, inhibition, AS
[11] = read-out: Fungicidal activity, inhibition, RC
[12] = read-out: Fungicidal activity, inhibition, PI
[13] = read-out: Fungicidal activity (inhibition) against SS: Sclerotinia sclerotiorum
[14] = read-out: Fungicidal activity (inhibition) against BC: Botrytis cinerea
[15] = read-out: Fungicidal activity (inhibition) against PS: Pellicularia sasakii
[16] = read-out: Fungicidal activity (inhibition) against PI: Phytophthora infestans (Mont) de Bary

SMILES: O=C(N/C(=C\c1ccc(Cl)cc1)C(=O)N1CCC(O)(c2ccc(Br)cc2)CC1)c1ccccc1 [Compound 18, (Z)-N-[1-[[4-(4-bromophenyl)-4-hydroxy-1-piperidinyl]carbonyl]-2-(4-chlorophenyl)ethenyl]benzamide]
- inhibition at 100 µg/mL [1]: 39%
- inhibition at 100 µg/mL [2]: 0%
- EC90 (Sclerotinia sclerotiorum): 381 µg/mL (≈ 706 µM)
- inhibition at 50 µg/mL (Sclerotinia sclerotiorum; [6]): 93%
- melting point: 210 to 212 °C
- inhibition at 50 µg/mL (Botrytis cinerea; [7]): 34%
- inhibition at 50 µg/mL (Pellicularia sasakii; [8]): 29%
- inhibition at 50 µg/mL (Physalospora piricola): 27%
- inhibition at 50 µg/mL (Cercospora arachidicola): 30%
- inhibition at 100 µg/mL [3]: 27%
- inhibition at 50 µg/mL (wheat Gibberella zeae; [9]): 49%
- inhibition at 50 µg/mL (Alternaria solani; read-out: Fungicidal activity (inhibition) against AS: Alternaria solani): 43%
- inhibition at 50 µg/mL (Alternaria solani; [10]): 43%
- inhibition at 50 µg/mL (Rhizoctonia cerealis; [11]): 29%
- inhibition at 50 µg/mL [4, 12]: 31%
- inhibition at 100 µg/mL [5]: 34%

SMILES: O=C(N/C(=C\c1ccc(Br)cc1)C(=O)N1CCC(O)(c2ccc(Br)cc2)CC1)c1ccccc1 [Compound 19, (Z)-N-[1-[[4-(4-bromophenyl)-4-hydroxy-1-piperidinyl]carbonyl]-2-(4-bromophenyl)ethenyl]benzamide]
- inhibition at 100 µg/mL [1]: 46%
- inhibition at 100 µg/mL [2]: 0%
- inhibition at 50 µg/mL (Sclerotinia sclerotiorum; [6]): 44%
- melting point: 147 to 148 °C
- inhibition at 50 µg/mL (Botrytis cinerea; [7]): 4%
- inhibition at 50 µg/mL (Pellicularia sasakii; [8]): 12%
- inhibition at 50 µg/mL (Physalospora piricola): 16%
- inhibition at 50 µg/mL (Cercospora arachidicola): 3%
- inhibition at 100 µg/mL [3]: 0%
- inhibition at 50 µg/mL (wheat Gibberella zeae; [9]): 5%
- inhibition at 50 µg/mL (Alternaria solani; [10]): 21%
- inhibition at 50 µg/mL (Rhizoctonia cerealis; [11]): 19%
- inhibition at 50 µg/mL [4, 12]: 27%
- inhibition at 100 µg/mL [5]: 0%

SMILES: O=C(N/C(=C\c1ccc(C(F)(F)F)cc1)C(=O)N1CCC(O)(c2ccc(Br)cc2)CC1)c1ccccc1 [Compound 20, (Z)-N-[1-[[4-(4-bromophenyl)-4-hydroxy-1-piperidinyl]carbonyl]-2-(4-trifluoromethylphenyl)ethenyl]benzamide]
- inhibition at 100 µg/mL [1]: 52%
- inhibition at 100 µg/mL [2]: 0%
- inhibition at 50 µg/mL (Sclerotinia sclerotiorum; [6]): 67%
- melting point: 137 to 139 °C
- inhibition at 50 µg/mL (Botrytis cinerea; [7]): 7%
- inhibition at 50 µg/mL (Pellicularia sasakii; [8]): 21%
- inhibition at 50 µg/mL (Physalospora piricola): 10%
- inhibition at 50 µg/mL (Cercospora arachidicola): 16%
- inhibition at 100 µg/mL [3]: 0%
- inhibition at 50 µg/mL (wheat Gibberella zeae; [9]): 7%
- inhibition at 50 µg/mL (Alternaria solani; [10]): 17%
- inhibition at 50 µg/mL (Rhizoctonia cerealis; [11]): 19%
- inhibition at 50 µg/mL [4, 12]: 21%
- inhibition at 100 µg/mL [5]: 53%

SMILES: O=C(N/C(=C\c1cccc(C(F)(F)F)c1)C(=O)N1CCC(O)(c2ccc(Br)cc2)CC1)c1ccccc1 [Compound 21, (Z)-N-[1-[[4-(4-bromophenyl)-4-hydroxy-1-piperidinyl]carbonyl]-2-(3-trifluoromethylphenyl)ethenyl]benzamide]
- inhibition at 100 µg/mL [1]: 46%
- inhibition at 100 µg/mL [2]: 35%
- inhibition at 50 µg/mL (Sclerotinia sclerotiorum; [13]): 60 to 80%
- inhibition at 50 µg/mL (Sclerotinia sclerotiorum; [6]): 75%
- melting point: 118 to 120 °C
- inhibition at 50 µg/mL (Botrytis cinerea; [7]): 8%
- inhibition at 50 µg/mL (Pellicularia sasakii; [8]): 17%
- inhibition at 50 µg/mL (Physalospora piricola): 8%
- inhibition at 50 µg/mL (Cercospora arachidicola): 25%
- inhibition at 100 µg/mL [3]: 58%
- inhibition at 50 µg/mL (wheat Gibberella zeae; [9]): 19%
- inhibition at 50 µg/mL (Alternaria solani; [10]): 12%
- inhibition at 50 µg/mL (Rhizoctonia cerealis; [11]): 24%
- inhibition at 50 µg/mL [4, 12]: 2%
- inhibition at 100 µg/mL [5]: 9%

SMILES: O=C(N/C(=C\c1ccccc1C(F)(F)F)C(=O)N1CCC(O)(c2ccc(Br)cc2)CC1)c1ccccc1 [Compound 22]
- inhibition at 100 µg/mL [1]: 0%
- inhibition at 100 µg/mL [2]: 59%
- EC90 (Sclerotinia sclerotiorum): 199 µg/mL (≈ 347 µM)
- inhibition at 50 µg/mL (Sclerotinia sclerotiorum; [13]): 100%
- inhibition at 50 µg/mL (Sclerotinia sclerotiorum; [6]): 100%
- melting point: 149 to 151 °C
- inhibition at 50 µg/mL (Botrytis cinerea; [7]): 8%
- inhibition at 50 µg/mL (Pellicularia sasakii; [8]): 15%
- inhibition at 50 µg/mL (Physalospora piricola): 8%
- inhibition at 50 µg/mL (Cercospora arachidicola): 25%
- inhibition at 100 µg/mL [3]: 58%
- inhibition at 50 µg/mL (wheat Gibberella zeae; [9]): 28%
- inhibition at 50 µg/mL (Alternaria solani; [10]): 12%
- inhibition at 50 µg/mL (Rhizoctonia cerealis; [11]): 26%
- inhibition at 50 µg/mL [4, 12]: 5%
- inhibition at 100 µg/mL [5]: 22%

SMILES: O=C(N/C(=C\c1ccc([N+](=O)[O-])cc1)C(=O)N1CCC(O)(c2ccc(Br)cc2)CC1)c1ccccc1 [Compound 23, (Z)-N-[1-[[4-(4-bromophenyl)-4-hydroxy-1-piperidinyl]carbonyl]-2-(4-nitrophenyl)ethenyl]benzamide]
- inhibition at 100 µg/mL [1]: 59%
- inhibition at 100 µg/mL [2]: 0%
- inhibition at 50 µg/mL (Sclerotinia sclerotiorum; [6]): 67%
- melting point: 186 to 188 °C
- inhibition at 50 µg/mL (Botrytis cinerea; [7]): 7%
- inhibition at 50 µg/mL (Pellicularia sasakii; [8]): 33%
- inhibition at 50 µg/mL (Physalospora piricola): 10%
- inhibition at 50 µg/mL (Cercospora arachidicola): 10%
- inhibition at 100 µg/mL [3]: 4%
- inhibition at 50 µg/mL (wheat Gibberella zeae; [9]): 19%
- inhibition at 50 µg/mL (Alternaria solani; [10]): 25%
- inhibition at 50 µg/mL (Rhizoctonia cerealis; [11]): 26%
- inhibition at 50 µg/mL [4, 12]: 17%
- inhibition at 100 µg/mL [5]: 11%

SMILES: O=C(N/C(=C\c1c[nH]cn1)C(=O)N1CCC(O)(c2ccc(Br)cc2)CC1)c1ccccc1 [Compound 26, (Z)-N-[1-[[4-(4-bromophenyl)-4-hydroxy-1-piperidinyl]carbonyl]-2-(4-imidazole)ethenyl]benzamide]
- inhibition at 100 µg/mL [1]: 1%
- inhibition at 100 µg/mL [2]: 0%
- inhibition at 50 µg/mL (Sclerotinia sclerotiorum; [13]): 60 to 80%
- inhibition at 50 µg/mL (Sclerotinia sclerotiorum; [6]): 78%
- melting point: 176 to 178 °C
- inhibition at 50 µg/mL (Botrytis cinerea; [7]): 14%
- inhibition at 50 µg/mL (Pellicularia sasakii; [8]): 0%
- inhibition at 50 µg/mL (Physalospora piricola): 7%
- inhibition at 50 µg/mL (Cercospora arachidicola): 16%
- inhibition at 100 µg/mL [3]: 21%
- inhibition at 50 µg/mL (wheat Gibberella zeae; read-out: Fungicidal activity (inhibition) against GZ: wheat Gibberella zeae): 77%
- inhibition at 50 µg/mL (wheat Gibberella zeae; [9]): 2%
- inhibition at 50 µg/mL (Alternaria solani; [10]): 21%
- inhibition at 50 µg/mL (Rhizoctonia cerealis; [11]): 16%
- inhibition at 50 µg/mL [4, 12]: 19%
- inhibition at 100 µg/mL [5]: 1%

SMILES: Cc1nnsc1/C=C(\NC(=O)c1ccccc1)C(=O)N1CCC(O)(c2ccc(Br)cc2)CC1 [Compound 27, (Z)-N-[1-[[4-(4-bromophenyl)-4-hydroxy-1-piperidinyl]carbonyl]-2-[5-(4-methyl-1,2,3-thiadiazol)]ethenyl]benzamide]
- inhibition at 100 µg/mL [1]: 37%
- inhibition at 100 µg/mL [2]: 3%
- inhibition at 50 µg/mL (Sclerotinia sclerotiorum; [6]): 47%
- melting point: 212 to 214 °C
- inhibition at 50 µg/mL (Botrytis cinerea; [14]): ~20%
- inhibition at 50 µg/mL (Botrytis cinerea; [7]): 26%
- inhibition at 50 µg/mL (Pellicularia sasakii; [15]): ~20%
- inhibition at 50 µg/mL (Pellicularia sasakii; [8]): 20%
- inhibition at 50 µg/mL (Physalospora piricola): 12%
- inhibition at 50 µg/mL (Cercospora arachidicola): 12%
- inhibition at 100 µg/mL [3]: 34%
- inhibition at 50 µg/mL (wheat Gibberella zeae; [9]): 57%
- inhibition at 50 µg/mL (Alternaria solani; [10]): 21%
- inhibition at 50 µg/mL (Rhizoctonia cerealis; [11]): 23%
- inhibition at 50 µg/mL [4, 16]: ~20%
- inhibition at 50 µg/mL [4, 12]: 24%
- inhibition at 100 µg/mL [5]: 0%

SMILES: Cc1snnc1/C=C(\NC(=O)c1ccccc1)C(=O)N1CCC(O)(c2ccc(Br)cc2)CC1 [Compound 28, (Z)-N-[1-[[4-(4-bromophenyl)-4-hydroxy-1-piperidinyl]carbonyl]-2-[4-(5-methyl-1,2,3-thiadiazol)]ethenyl]benzamide]
- inhibition at 100 µg/mL [1]: 36%
- inhibition at 100 µg/mL [2]: 43%
- inhibition at 50 µg/mL (Sclerotinia sclerotiorum; [13]): 60 to 80%
- inhibition at 50 µg/mL (Sclerotinia sclerotiorum; [6]): 75%
- melting point: 231 to 233 °C
- inhibition at 50 µg/mL (Botrytis cinerea; [14]): ~20%
- inhibition at 50 µg/mL (Botrytis cinerea; [7]): 24%
- inhibition at 50 µg/mL (Pellicularia sasakii; [15]): ~20%
- inhibition at 50 µg/mL (Pellicularia sasakii; [8]): 27%
- inhibition at 50 µg/mL (Physalospora piricola): 29%
- inhibition at 50 µg/mL (Cercospora arachidicola): 27%
- inhibition at 100 µg/mL [3]: 3%
- inhibition at 50 µg/mL (wheat Gibberella zeae; [9]): 77%
- inhibition at 50 µg/mL (Alternaria solani; [10]): 32%
- inhibition at 50 µg/mL (Rhizoctonia cerealis; read-out: Fungicidal activity (inhibition) against RC: Rhizoctonia cerealis): 62%
- inhibition at 50 µg/mL (Rhizoctonia cerealis; [11]): 62%
- inhibition at 50 µg/mL [4, 16]: ~20%
- inhibition at 50 µg/mL [4, 12]: 19%
- inhibition at 100 µg/mL [5]: 4%
